These molecules were tested on TNF-α secreted by synoviocyte (assay: Content of TNF-α in culture supernatant of synoviocyte of RA model rats given test compound). Settings: rat RA model, dose 30 mg/kg.2d; normal control 0.38 ± 0.027, NaCl 0.74 ± 0.098.
Format: in vivo
Source text: Take Compound 1-50 prepared as per the method according to the present invention and employ the method provided in Reference to prepare model, group drugs and prepare culture supernatant of rat synoviocyte.
Employ the method provided in Reference to investigate the effects of the test compounds on the synoviocyte to secrete TNF-α and PGE2. Employ the method provided in Reference to investigate the effects of the test compounds on the synoviocyte to secrete IL-1β.
The experimental data of the test compound 1-50 at a dose of 30 mg/kg.2d as well as the normal control and NaCl group are as follows: […]

Row | SMILES | Content of TNF-α in culture supernatant of synoviocyte (x ± s) [ng/mL]
1 | C=C1CC[C@H]2C(=C)CC[C@H]3C(=C)C(=O)O[C@@H]3[C@@H]12 [Compound 25] | 0.58 ± 0.056
2 | [2H][C@@]1(CN(C)C)C(=O)O[C@@H]2[C@@H]3[C@@H](CCC34CC4)C3(CC[C@H]21)CC3 [Compound 46] | 0.56 ± 0.034
3 | C=C1C(=O)O[C@H]2[C@H]1CCC(C)=C1CC[C@@](C)(OC(=O)CCCc3cn(CCCCCCO)nn3)[C@@H]12 [Compound 21] | 0.56 ± 0.034
4 | C=C1C(=O)O[C@@H]2[C@@H]3[C@@H](CCC34CC4)C3(CC[C@@H]12)CC3 [Compound 26] | 0.59 ± 0.051
5 | C=C1C(=O)O[C@@H]2[C@@H]3[C@@H](CC[C@@]3(C)O)C(=C)CC[C@@H]12 [Compound 48] | 0.62 ± 0.054
6 | CN(C)C[C@@H]1C(=O)O[C@H]2[C@H]1CCC1(CC1)[C@@H]1CCC3(CC3)[C@H]21 [Compound 35] | 0.57 ± 0.057
7 | C=C1C(=O)O[C@@H]2[C@H]3C(C)=CC[C@@]34O[C@@]4(C)CC[C@@H]12 [Compound 50] | 0.52 ± 0.064
8 | C=C1C(=O)O[C@H]2[C@H]1CC[C@@](C)(OC)C1CC[C@@](C)(O)[C@@H]12 (stereo partly shown) [Compound 47] | 0.64 ± 0.062
9 | CN(C)C[C@@H]1C(=O)O[C@H]2[C@H]1CCC1(CC1)[C@@H]1CCC3(CC3)[C@H]21 [Compound 27] | 0.54 ± 0.066
10 | CCOC(=O)[C@@H]1CCCN1C[C@@H]1C(=O)O[C@H]2[C@H]1CCC1(CC1)[C@@H]1CCC3(CC3)[C@H]21 [Compound 29] | 0.66 ± 0.046
11 | C=C1C(=O)O[C@H]2[C@H]1CC[C@]1(C)O[C@@]13CC[C@@](C)(O)[C@H]23 [Compound 24] | 0.54 ± 0.057
12 | C=C1C(=O)O[C@@H]2[C@@H]3[C@@H](CC[C@@]3(C)O)[C@](C)(O)CC[C@@H]12 [Compound 49] | 0.65 ± 0.046

Same assay, conditions: rat RA model, dose 30 mg/kg.2d; normal control 0.38 ± 0.027, NaCl 0.74 ± 0.098; 30 mg/kg

Row | SMILES | Content of TNF-α in culture supernatant of synoviocyte (x ± s) [ng/mL]
13 | CC1=C2CC[C@@](C)(O)[C@@H]2[C@H]2OC(=O)[C@@H](CN(C)C)[C@@H]2CC1 [Compound 23] | 0.63 ± 0.063
